For orientation: pKi means the negative decadic logarithm of the Ki, by convention in mol/L.

Assay [1] has as its target T1, cannabinoid receptor CB2 (Homo sapiens, UniProt P34972). The conditions noted are these: at CB2; cited from earlier work.
For assay [2], the target named is T1, cannabinoid receptor CB2. Particulars: cited from earlier work.
Assay [3] relates to mouse model of schizophrenia. As to the kind of experiment: Open-field test (ambulation/crossing, rearing, grooming).
The test system of the next assay is GAD67. Description: Expression level of GAD67 in brain tissue. Type of assay: in vivo, mice. Particulars: PCP vs control; for GAD67 protein level: 2 weeks old; for GAD67 mRNA level: 9 days old. The method, then:
Expression Level of GAD67 in Mice at 9 Days Old (mRNA) or 2 Weeks Old (Protein)
Brain tissue of control mice and mice treated with PCP were analyzed for GAD67, a neurochemical marker for schizophrenia (FIG. 9A-F).

Assay [4] concerns mouse model of schizophrenia. Description: Elevated Plus Maze test. The conditions noted are these: Study I, age 13 weeks.
For assay [5], the system named is mouse model of schizophrenia. Description: Behavior in the Phenotyper cage. Type of assay: in vivo, mice. The conditions noted are these: Study II.
The test system of the next assay is CB2 receptor. Description: Expression level of CB2 receptor in brain tissue. The format is in vivo, mice. The conditions noted are these: for mRNA expression of CB2 receptor: PCP-treated vs control mice, 9 days old. The method, then: (§1) Expression Level of CB1 and CB2 Receptor in Mice at 9 Days Old (mRNA) or 2 Weeks Old (Protein)
(§2) Brain tissue of control mice (saline treated) and mice treated with PCP were analyzed in the left and right cortex and brain stem (FIGS. 7A-I; FIG. 8. Results from the cortex and brain stem were reported by the Inventors in 2011 (Anavi-Goffer et al).

The subject of the next assay is CB1 receptor. As to the kind of experiment: Expression level of CB1 receptor in brain tissue. The format is in vivo. Particulars: PCP-treated vs control mice, 9 days old. The method, then: as §1, §2
Assay [6] is described as follows: Body weight of mice in the neonatal PCP model.
Assay [7] concerns mouse model of schizophrenia. Description: Prepulse inhibition (PPI) of the startle reflex. Particulars: Study I, age 8 weeks.
The next assay relates to MGL. As to the kind of experiment: Expression of MGL in brain tissue. The format is in vivo. The conditions noted are these: PCP vs control, 2 week old mice. From the text: Expression of MGL in 2 Week Old Mice
[8] abbreviates: Study III: male mice, PND 17, PCP 5 mg/kg, 1 h later BCP 10 mg/kg or BCP+AM630 10 mg/kg each, DMSO-based vehicle.

pKi: −log10 of the molar value. Entries after “also recorded” stand apart in the source; their conditions may differ.

T1 sequence (P34972 whole entry): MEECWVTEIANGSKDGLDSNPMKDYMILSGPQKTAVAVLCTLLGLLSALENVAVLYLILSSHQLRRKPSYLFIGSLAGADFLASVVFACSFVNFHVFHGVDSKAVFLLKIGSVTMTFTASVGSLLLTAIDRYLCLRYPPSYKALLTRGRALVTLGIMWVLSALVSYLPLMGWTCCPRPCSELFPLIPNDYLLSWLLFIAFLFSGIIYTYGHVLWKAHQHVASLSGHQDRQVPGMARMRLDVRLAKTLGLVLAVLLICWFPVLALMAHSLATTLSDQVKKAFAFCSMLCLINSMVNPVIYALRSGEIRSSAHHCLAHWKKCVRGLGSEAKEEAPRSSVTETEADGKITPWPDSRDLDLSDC

As for `COc1ccc(C(=O)c2c(C)n(CCN3CCOCC3)c3cc(I)ccc23)cc1` [AM630, 6-Iodopravadoline, reference compound], on cannabinoid receptor CB2 [1], the negative-log Ki (pKi) was 7.49. Besides, the “activity at CB2 receptor” value on cannabinoid receptor CB2 [2] is “potent and selective inverse agonist”. Besides, the “open-field behaviors compared with PCP-treated mice” value in assay [3] (Study III: PCP+BCP+AM630 group, male mice, PND 17) is listed as “not significantly different from these of PCP-treated mice”. Also, in [3] (setting [8]), the ambulation result is “reversed the effects of BCP on ambulation and rearing behaviors; also recorded: reversed the effect of BCP on PCP-induced inhibition of ambulation and rearing”; the rearing result is “reversed the effects of BCP on ambulation and rearing behaviors; also recorded: reversed the effect of BCP on PCP-induced inhibition of ambulation and rearing”.

As to `c1ccc(C2(N3CCCCC3)CCCCC2)cc1` [PCP, Phencyclidine, reference compound], the GAD67 protein level result in the assay on GAD67 (brain stem, Western blotting (FIG. 9C)) is “non-significant reduction”; with GAD67 (left cortex (FIG. 9A)) it was “significantly decreased”; in the assay with GAD67 (right cortex (FIG. 9B)), “did not reach a significant level”. Further, the “GAD67 mRNA level” value with GAD67 (brain stem (FIG. 9F)) is recorded as “increased”; in the assay with GAD67 (left cortex (FIG. 9D)), “no change was found at the mRNA level”; in the assay with GAD67 (right cortex (FIG. 9E)) it was “no change was seen in the mRNA level”. For the same molecule, the “time spent in the distal end of the opened arm (anxiety)” value is given as “reduced the time spent in the distal end of the opened arm; also recorded: induced anxiety in female mice” in assay [4] (females (FIGS. 6E, 6G)) and “increased the time spent in the distal end of the opened arm; also recorded: anxiolytic effect in male mice” in assay [4] (males (FIGS. 6F, 6H)). The “frequency of entries to the wheel” value in assay [5] (PND 91, females and males) was “reduced the frequency of entries to the wheel”. Further, in assay [5] (PND 91, females and males), the “time spent in the Hidden Zone” value is “increased the time spend at the Hidden Zone”. Moreover, the “frequency of entries to the hidden zone” value in assay [5] (PND 91, males (FIG. 20D)) is on record as “appeared to reduce the frequency of entries to the Hidden Zone in males”; in assay [5] (PND 105) it was “increased the frequency of entries to the Hidden Zone”. Besides, the “mRNA expression of CB2 receptor” value was “significant increase” in the assay with CB2 receptor (brain stem); “significant increase” with CB2 receptor (left cortex); “no difference between control and PCP-treated mice” with CB2 receptor (right cortex). Also, the “CB2 receptor expression level” value in the assay with CB2 receptor (following administration of PCP, different brain areas) is “selectively down-regulated in different brain areas”. The “putative CB2 receptor expression” value in the assay on CB2 receptor (mice neonatally treated with phencyclidine, right cortex and basal ganglia/diencephalon) was “up-regulation”. The “mRNA expression of CB1 receptor” value with CB1 receptor (brain stem) is listed as “significant increase”; in the assay on CB1 receptor (left or right cortex), “No significant increase”. The body weight result was “induced a significant reduction in body weight” in assay [6] (Study I, ethanol-based vehicle, PND 7 / first week of life (FIG. 1B)); “significantly reduce the body weight” in assay [6] (Study I: PCP 5 mg/kg PND 3-16, BCP 10 mg/kg 1 h after PCP, ethanol-based vehicle, each day of injection PND 3-17 (FIG. 1A)); “still significant” in assay [6] (Study I, PND 17 (FIG. 2C)); “no significant difference in male body weight between the groups” in assay [6] (Study I, PND 35-37, males (FIG. 4A)); “significantly reduced body weight” in assay [6] (Study II: PCP 5 mg/kg, days 3, 5, 7, 10, 12, 15 and 17, male and female (FIG. 13A)); “no significant difference in the body weight between vehicle-treated mice and PCP-treated mice” in assay [6] (Study II, PND 63 (FIG. 14B)). In addition, the “% inhibition (ability to adjust to sound stimulus, PPI)” value in [7] (females (FIG. 5D)) was “No significant difference”; in assay [7] (males (FIG. 5B)), “significant reduction in their ability to adjust to sound stimulus”. The “protein level of MGL” value with MGL (Western blotting (FIG. 10C)) is “reduction in protein level of MGL”. Further, the “mRNA levels of MGL” value in the assay on MGL (left cortex (FIG. 10A)) is on record as “decreased”. For the same molecule, the rearing entry was “significantly inhibited both ambulation and rearing behaviors” in assay [3] (Study I, ethanol-based vehicle, PND 17 (FIG. 2B)); “significantly inhibited” in assay [3] (Study II: PCP 5 mg/kg, PND 16 (FIG. 13C)); “significantly inhibited both ambulation and rearing behaviors” in [3] (setting [8]). In addition, the “ambulation (exploration)” value in [3] (Study I: PCP 5 mg/kg, BCP 10 mg/kg, ethanol-based vehicle, PND 17 (FIG. 2A)) was “significantly inhibited both ambulation and rearing behaviors”. The ambulation entry in assay [3] (Study I, PND 17, females) is “more sensitive to the effect of PCP”; in [3] (Study II: PCP 5 mg/kg, PND 16 (FIG. 13B)) it was “significantly inhibited”; in assay [3] (setting [8]), “significantly inhibited both ambulation and rearing behaviors”. The rearing behavior result in [3] (Study I, PND 17, females) is listed as “more sensitive to the effect of PCP”. Besides, the locomotor activity entry in assay [3] (Study I, PND 17, males) is “appeared to be less sensitive to the treatment of PCP or PCP+BCP”; in assay [3] (Study I, PND 35-37, males (FIG. 4C)), “significantly increased the locomotor activity compared with vehicle treatment”. In addition, the “rearing and exploration behaviors” value in assay [3] (Study I, PND 35-37, females (FIGS. 4E, 4F)) is “no differences in rearing and exploration behaviors were seen between the different groups”.

Source of the values: patent US11612572B2, “Treatment of schizophrenia using beta-caryophyllene and CB2 receptor agonists” (priority 2012, dated 2023).
